Test results reported in article PMC8854719, “Phase 1A/1B dose-escalation and -expansion study to evaluate the safety, pharmacokinetics, food effects and antitumor activity of pamiparib in advanced solid tumours” (British Journal of Cancer, 2021).

Test: Safety and tolerability: adverse events, dose-limiting toxicities, MTD, RP2D (Phase 1A/1B)
Format: in vivo
Description: This was an open-label, Phase 1, dose-escalation/dose-expansion study, conducted across six study centres in Australia. The dose-escalation phase evaluated twice-daily (BID) and once-daily (QD) dosing, and the dose-expansion phase evaluated the BID RP2D from the dose-escalation phase and food effects (Fig. 1). The food-effects cohort comprised two sequences: fast followed by fed (sequence 1) and fed followed by fast (sequence 2). […] The decision to proceed to the next dose cohort was determined by the Safety Monitoring Committee and followed a modified 3 + 3 escalation scheme. […] When ≥2 DLTs occurred in the first 23 days of a dose level, the next lower dose level was declared the MTD. Safety was monitored and DLTs were assessed in all dose cohorts. […] The food-effects cohort investigated the effects of food on the PK of pamiparib in patients with advanced solid tumours.
The QD dosing regimen was added as an amendment to the protocol with the purpose of exploring the feasibility of a more convenient regimen.
Safety and tolerability were assessed throughout the study by monitoring adverse events (AEs), serious AEs, clinical laboratory measurements and physical examinations. Adverse events were categorised according to their severity (National Cancer Institute Common Terminology Criteria for Adverse Events v4.03) and relationship to the study treatment.

C[C@]12CCCN1CC1=NNC(=O)c3cc(F)cc4[nH]c2c1c34 [pamiparib]
Pleural effusion, AE of any grade (5.0 mg BID (n = 3)): 1 (33.3) n (%)
Pyrexia, AE of any grade (5.0 mg BID (n = 3)): 0 (0.0) n (%)
Treatment-emergent AE (5.0 mg BID (n = 3)): 3 (100.0) n (%)
Treatment-emergent AE: Grade 3 or higher (5.0 mg BID (n = 3)): 1 (33.3) n (%)
Treatment-emergent AE: Leading to death (5.0 mg BID (n = 3)): 0 (0.0) n (%)
Treatment-emergent AE: Leading to dose interruption (5.0 mg BID (n = 3)): 1 (33.3) n (%)
Treatment-emergent AE: Leading to dose modification (5.0 mg BID (n = 3)): 1 (33.3) n (%)
Treatment-emergent AE: Leading to dose reduction (5.0 mg BID (n = 3)): 0 (0.0) n (%)
Treatment-emergent AE: Leading to treatment discontinuation (5.0 mg BID (n = 3)): 0 (0.0) n (%)
Treatment-emergent AE: Serious (5.0 mg BID (n = 3)): 2 (66.7) n (%)
Treatment-related AE (5.0 mg BID (n = 3)): 2 (66.7) n (%)
Treatment-related AE: Grade 3 or higher (5.0 mg BID (n = 3)): 0 (0.0) n (%)
Treatment-related AE: Leading to death (5.0 mg BID (n = 3)): 0 (0.0) n (%)
Treatment-related AE: Leading to dose interruption (5.0 mg BID (n = 3)): 0 (0.0) n (%)
Treatment-related AE: Leading to dose modification (5.0 mg BID (n = 3)): 0 (0.0) n (%)
Treatment-related AE: Leading to dose reduction (5.0 mg BID (n = 3)): 0 (0.0) n (%)
Treatment-related AE: Leading to treatment discontinuation (5.0 mg BID (n = 3)): 0 (0.0) n (%)
Treatment-related AE: Serious (5.0 mg BID (n = 3)): 0 (0.0) n (%)
Upper respiratory tract infection, AE of any grade (5.0 mg BID (n = 3)): 0 (0.0) n (%)
Urinary tract infection, AE of any grade (5.0 mg BID (n = 3)): 0 (0.0) n (%)
Vomiting, AE of any grade (5.0 mg BID (n = 3)): 0 (0.0) n (%)
Abdominal pain, AE of any grade (10 mg BID (n = 3)): 1 (33.3) n (%)
Anaemia, AE of any grade (10 mg BID (n = 3)): 1 (33.3) n (%)
Ascites, AE of any grade (10 mg BID (n = 3)): 2 (66.7) n (%)
Back pain, AE of any grade (10 mg BID (n = 3)): 0 (0.0) n (%)
Constipation, AE of any grade (10 mg BID (n = 3)): 1 (33.3) n (%)
Cough, AE of any grade (10 mg BID (n = 3)): 1 (33.3) n (%)
Decreased appetite, AE of any grade (10 mg BID (n = 3)): 0 (0.0) n (%)
Diarrhoea, AE of any grade (10 mg BID (n = 3)): 1 (33.3) n (%)
Dose-limiting toxicity (10 mg BID (n = 3)): 0 (0.0) n (%)
Dyspnoea, AE of any grade (10 mg BID (n = 3)): 1 (33.3) n (%)
Fatigue, AE of any grade (10 mg BID (n = 3)): 0 (0.0) n (%)
Headache, AE of any grade (10 mg BID (n = 3)): 0 (0.0) n (%)
Hypoalbuminemia, AE of any grade (10 mg BID (n = 3)): 0 (0.0) n (%)
Hypomagnesemia, AE of any grade (10 mg BID (n = 3)): 1 (33.3) n (%)
Hypophosphatemia, AE of any grade (10 mg BID (n = 3)): 0 (0.0) n (%)
Increased AST, AE of any grade (10 mg BID (n = 3)): 0 (0.0) n (%)
Muscle spasms, AE of any grade (10 mg BID (n = 3)): 0 (0.0) n (%)
Nausea, AE of any grade (10 mg BID (n = 3)): 1 (33.3) n (%)
Neutropenia, AE of any grade (10 mg BID (n = 3)): 0 (0.0) n (%)
Non-cardiac chest pain, AE of any grade (10 mg BID (n = 3)): 0 (0.0) n (%)
Pain in extremity, AE of any grade (10 mg BID (n = 3)): 0 (0.0) n (%)
Peripheral sensory neuropathy, AE of any grade (10 mg BID (n = 3)): 0 (0.0) n (%)
Pleural effusion, AE of any grade (10 mg BID (n = 3)): 0 (0.0) n (%)
Pyrexia, AE of any grade (10 mg BID (n = 3)): 1 (33.3) n (%)
Treatment-emergent AE (10 mg BID (n = 3)): 3 (100.0) n (%)
Treatment-emergent AE: Grade 3 or higher (10 mg BID (n = 3)): 2 (66.7) n (%)
Treatment-emergent AE: Leading to death (10 mg BID (n = 3)): 0 (0.0) n (%)
Treatment-emergent AE: Leading to dose interruption (10 mg BID (n = 3)): 1 (33.3) n (%)
Treatment-emergent AE: Leading to dose modification (10 mg BID (n = 3)): 1 (33.3) n (%)
Treatment-emergent AE: Leading to dose reduction (10 mg BID (n = 3)): 0 (0.0) n (%)
Treatment-emergent AE: Leading to treatment discontinuation (10 mg BID (n = 3)): 0 (0.0) n (%)
Treatment-emergent AE: Serious (10 mg BID (n = 3)): 2 (66.7) n (%)
Treatment-related AE (10 mg BID (n = 3)): 0 (0.0) n (%)
Treatment-related AE: Grade 3 or higher (10 mg BID (n = 3)): 0 (0.0) n (%)
Treatment-related AE: Leading to death (10 mg BID (n = 3)): 0 (0.0) n (%)
Treatment-related AE: Leading to dose interruption (10 mg BID (n = 3)): 0 (0.0) n (%)
Treatment-related AE: Leading to dose modification (10 mg BID (n = 3)): 0 (0.0) n (%)
Treatment-related AE: Leading to dose reduction (10 mg BID (n = 3)): 0 (0.0) n (%)
Treatment-related AE: Leading to treatment discontinuation (10 mg BID (n = 3)): 0 (0.0) n (%)
Treatment-related AE: Serious (10 mg BID (n = 3)): 0 (0.0) n (%)
Upper respiratory tract infection, AE of any grade (10 mg BID (n = 3)): 0 (0.0) n (%)
Urinary tract infection, AE of any grade (10 mg BID (n = 3)): 0 (0.0) n (%)
Vomiting, AE of any grade (10 mg BID (n = 3)): 1 (33.3) n (%)
Abdominal pain, AE of any grade (20 mg BID (n = 3)): 2 (66.7) n (%)
Anaemia, AE of any grade (20 mg BID (n = 3)): 0 (0.0) n (%)
